# Laboratory results as given in ChEMBL document CHEMBL1151073, “Substituted 1,3,5-triazines as cholesteryl ester transfer protein inhibitors” (Bioorg Med Chem Lett, 1996).
# Molecular target: T1, Cholesteryl ester transfer protein (Homo sapiens, UniProt P11597)
# T1 sequence (P11597 whole entry): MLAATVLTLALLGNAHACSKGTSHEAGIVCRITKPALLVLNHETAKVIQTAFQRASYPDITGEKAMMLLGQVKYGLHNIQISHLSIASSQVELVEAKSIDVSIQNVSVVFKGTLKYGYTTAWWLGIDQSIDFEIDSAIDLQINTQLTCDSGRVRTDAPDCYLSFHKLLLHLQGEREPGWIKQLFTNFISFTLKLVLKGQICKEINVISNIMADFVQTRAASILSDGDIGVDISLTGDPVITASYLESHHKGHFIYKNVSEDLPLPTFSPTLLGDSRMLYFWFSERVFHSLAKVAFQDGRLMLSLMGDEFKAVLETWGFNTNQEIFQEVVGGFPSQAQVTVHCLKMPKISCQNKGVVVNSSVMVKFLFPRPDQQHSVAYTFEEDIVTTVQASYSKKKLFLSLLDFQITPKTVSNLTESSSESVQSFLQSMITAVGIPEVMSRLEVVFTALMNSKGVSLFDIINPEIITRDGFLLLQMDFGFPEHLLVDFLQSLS
# Assay: Inhibition of Cholesteryl ester transfer protein
row,SMILES,IC50
1,Clc1ccc(N2CCN(c3nc(Cc4ccc5ccccc5c4)nc(N4CCNCC4)n3)CC2)cc1,5 µM
2,Clc1ccc(N2CCN(c3nc(Cc4ccccc4)nc(N4CCNCC4)n3)CC2)cc1,9 µM
3,Clc1ccc(N2CCN(c3nc(-c4ccccc4)nc(N4CCNCC4)n3)CC2)cc1,11 µM
4,Clc1ccc(N2CCN(c3nc(C#Cc4ccccc4)nc(N4CCNCC4)n3)CC2)cc1,12 µM
5,Oc1ccc(CCNc2nc(N3CCNCC3)nc(N3CCN(c4ccc(Cl)cc4)CC3)n2)cc1O,21 µM
6,CN(CCc1ccccc1)c1nc(N2CCNCC2)nc(N2CCN(c3ccc(Cl)cc3)CC2)n1,6 µM
7,Clc1ccc(N2CCN(c3nc(NCCc4ccccc4)nc(N4CCNCC4)n3)CC2)cc1,45 µM
8,COc1ccc(CCNc2nc(N3CCNCC3)nc(N3CCN(c4ccc(Cl)cc4)CC3)n2)cc1O,16 µM
9,Clc1ccc(N2CCN(c3nc(N4CCNCC4)nc(N4CCc5ccccc5C4)n3)CC2)cc1,5 µM
10,CCCCc1nc(N2CCNCC2)nc(N2CCN(c3ccc(Cl)cc3)CC2)n1,11 µM
11,Clc1ccc(Cc2nc(N3CCNCC3)nc(N3CCN(c4ccc(Cl)cc4)CC3)n2)cc1,9 µM
12,Clc1ccc(N2CCN(c3nc(N/N=C/c4ccccc4)nc(N4CCNCC4)n3)CC2)cc1,10 µM

# Molecular target: T2, Cholesteryl ester transfer protein (Homo sapiens) (UniProt P11597)
# T2 sequence (whole entry): T1 sequence (P11597 whole entry)
# Assay: Compound was tested for inhibitory activity against Cholesteryl ester transfer protein at 50 uM
row,SMILES,inhibition
1,Clc1ccc(N2CCN(c3nc(NCc4ccccc4)nc(N4CCNCC4)n3)CC2)cc1,52%
2,Clc1ccc(N2CCN(c3nc(Cl)nc(N4CCNCC4)n3)CC2)cc1,37%
3,Oc1nc(N2CCNCC2)nc(N2CCN(c3ccc(Cl)cc3)CC2)n1,11%
4,Clc1ccc(N2CCN(c3nc(OCCc4ccccc4)nc(N4CCNCC4)n3)CC2)cc1,66%
5,C=Cc1nc(N2CCNCC2)nc(N2CCN(c3ccc(Cl)cc3)CC2)n1,48%
6,Clc1ccc(N2CCN(c3ncnc(N4CCNCC4)n3)CC2)cc1,14%
7,CCCCOc1nc(N2CCNCC2)nc(N2CCN(c3ccc(Cl)cc3)CC2)n1,57%
